Experimental data from ChEMBL document CHEMBL1144507, “Synthesis and antifungal activity of (Z)-5-arylidenerhodanines” (2007).
In brackets after ≈: the same amount, converted by molar mass.

Assays:
Candida albicans [1] = assay: Antifungal activity against Candida albicans C125-2000 after 48 hrs; assay type: functional
Nannizzia gypsea = assay: Antifungal activity against Microsporum gypseum C115 after 48 hrs; assay type: functional
Trichophyton benhamiae [2] = assay: Antifungal activity against Trichophyton mentagrophytes ATCC 9972 after 48 hrs; assay type: functional, Arthroderma benhamiae; settings: ATCC 9972, 48 h
Candida albicans [3] = assay: Antifungal activity against Candida albicans C128-2000 after 48 hrs; assay type: functional
Kluyveromyces marxianus = assay: Antifungal activity against Candida kefyr C123-2000 after 48 hrs; assay type: functional
Cryptococcus neoformans [4] = assay: Antifungal activity against Cryptococcus neoformans ATCC 32264 after 48 hrs; assay type: functional; settings: ATCC 32264, 48 h
Candida albicans [5] = assay: Antifungal activity against Candida albicans C126-2000 after 48 hrs; assay type: functional
Candida parapsilosis = assay: Antifungal activity against Candida parapsilosis C124-2000 after 48 hrs; assay type: functional; settings: Lodderomyces parapsilosis
Cryptococcus neoformans [6] = assay: Antifungal activity against […] IM 00319 after 48 hrs; assay type: functional
Aspergillus flavus = assay: Antifungal activity against Aspergillus flavus ATCC 9170 after 48 hrs; assay type: functional; settings: ATCC 9170, 48 h
Cryptococcus neoformans [7] = assay: Antifungal activity against […] IM 983036 after 48 hrs; assay type: functional
Cryptococcus neoformans [8] = assay: Antifungal activity against Candida neoformans IM 983040 after 48 hrs; assay type: functional
Cryptococcus neoformans [9] = assay: Antifungal activity against […] ATCC 32264 after 48 hrs; assay type: functional; settings: ATCC 32264, 48 h
Candida albicans [10] = assay: Antifungal activity against Candida albicans ATCC 10231 after 48 hrs; assay type: functional; settings: ATCC 10231, 48 h
Trichophyton benhamiae [11] = assay: Antifungal activity against Trichophyton mentagrophytes C108 after 48 hrs; assay type: functional, Arthroderma benhamiae
Cryptococcus neoformans [12] = assay: Antifungal activity against […] IM 031706 after 48 hrs; assay type: functional
Trichophyton benhamiae [13] = assay: Antifungal activity against Trichophyton mentagrophytes C364 after 48 hrs; assay type: functional, Arthroderma benhamiae
Cryptococcus neoformans [14] = assay: Antifungal activity against […] IM 972724 after 48 hrs; assay type: functional
Clavispora lusitaniae = assay: Antifungal activity against Candida lusitaniae C131-2000 after 48 hrs; assay type: functional

O=C1NC(=S)S/C1=C\c1ccc(F)cc1
MFC (Candida albicans [1]): 31.2 µg/mL (≈ 130 µM)
MIC (Candida albicans [1]): 15.6 µg/mL (≈ 65.2 µM)
MIC50 (Candida albicans [1]): 7.8 µg/mL (≈ 32.6 µM)
MIC80 (Candida albicans [1]): 7.8 µg/mL (≈ 32.6 µM)
MIC (Nannizzia gypsea): 15.6 µg/mL (≈ 65.2 µM)
MIC (Trichophyton benhamiae [2]): 7.8 µg/mL (≈ 32.6 µM)
MFC (Candida albicans [3]): 62.5 µg/mL (≈ 261 µM)
MIC (Candida albicans [3]): 31.2 µg/mL (≈ 130 µM)
MIC50 (Candida albicans [3]): 3.9 µg/mL (≈ 16.3 µM)
MIC80 (Candida albicans [3]): 15.6 µg/mL (≈ 65.2 µM)
MFC (Kluyveromyces marxianus): 31.2 µg/mL (≈ 130 µM)
MIC (Kluyveromyces marxianus): 31.2 µg/mL (≈ 130 µM)
MIC50 (Kluyveromyces marxianus): 3.9 µg/mL (≈ 16.3 µM)
MIC80 (Kluyveromyces marxianus): 7.8 µg/mL (≈ 32.6 µM)
MIC (Cryptococcus neoformans [4]): 7.8 µg/mL (≈ 32.6 µM)
MFC (Candida albicans [5]): 31.2 µg/mL (≈ 130 µM)
MIC (Candida albicans [5]): 15.6 µg/mL (≈ 65.2 µM)
MIC50 (Candida albicans [5]): 3.9 µg/mL (≈ 16.3 µM)
MIC80 (Candida albicans [5]): 15.6 µg/mL (≈ 65.2 µM)
MFC (Candida parapsilosis): 15.6 µg/mL (≈ 65.2 µM)
MIC (Candida parapsilosis): 7.8 µg/mL (≈ 32.6 µM)
MIC50 (Candida parapsilosis): 7.8 µg/mL (≈ 32.6 µM)
MIC80 (Candida parapsilosis): 3.9 µg/mL (≈ 16.3 µM)
MFC (Cryptococcus neoformans [6]): 15.6 µg/mL (≈ 65.2 µM)
MIC (Cryptococcus neoformans [6]): 7.8 µg/mL (≈ 32.6 µM)
MIC50 (Cryptococcus neoformans [6]): 1.9 µg/mL (≈ 7.94 µM)
MIC80 (Cryptococcus neoformans [6]): 1.9 µg/mL (≈ 7.94 µM)
MIC (Aspergillus flavus): 250 µg/mL (≈ 1040 µM)
MFC (Cryptococcus neoformans [7]): 62.5 µg/mL (≈ 261 µM)
MIC (Cryptococcus neoformans [7]): 15.6 µg/mL (≈ 65.2 µM)
MIC50 (Cryptococcus neoformans [7]): 7.8 µg/mL (≈ 32.6 µM)
MIC80 (Cryptococcus neoformans [7]): 7.8 µg/mL (≈ 32.6 µM)
MFC (Cryptococcus neoformans [8]): 31.2 µg/mL (≈ 130 µM)
MIC (Cryptococcus neoformans [8]): 15.6 µg/mL (≈ 65.2 µM)
MIC50 (Cryptococcus neoformans [8]): 1.9 µg/mL (≈ 7.94 µM)
MIC80 (Cryptococcus neoformans [8]): 1.9 µg/mL (≈ 7.94 µM)
MFC (Cryptococcus neoformans [9]): 31.2 µg/mL (≈ 130 µM)
MIC (Cryptococcus neoformans [9]): 7.8 µg/mL (≈ 32.6 µM)
MIC50 (Cryptococcus neoformans [9]): 3.9 µg/mL (≈ 16.3 µM)
MIC80 (Cryptococcus neoformans [9]): 7.8 µg/mL (≈ 32.6 µM)
MIC (Candida albicans [10]): 7.8 µg/mL (≈ 32.6 µM)
MIC (Trichophyton benhamiae [11]): 1.95 µg/mL (≈ 8.15 µM)
MFC (Cryptococcus neoformans [12]): 31.2 µg/mL (≈ 130 µM)
MIC (Cryptococcus neoformans [12]): 7.8 µg/mL (≈ 32.6 µM)
MIC50 (Cryptococcus neoformans [12]): 1.9 µg/mL (≈ 7.94 µM)
MIC80 (Cryptococcus neoformans [12]): 3.9 µg/mL (≈ 16.3 µM)
MIC (Trichophyton benhamiae [13]): 0.97 µg/mL (≈ 4.05 µM)
MFC (Cryptococcus neoformans [14]): 31.2 µg/mL (≈ 130 µM)
MIC (Cryptococcus neoformans [14]): 15.6 µg/mL (≈ 65.2 µM)
MIC50 (Cryptococcus neoformans [14]): 3.9 µg/mL (≈ 16.3 µM)
MIC80 (Cryptococcus neoformans [14]): 7.8 µg/mL (≈ 32.6 µM)
MFC (Clavispora lusitaniae): 15.6 µg/mL (≈ 65.2 µM)
MIC (Clavispora lusitaniae): 7.8 µg/mL (≈ 32.6 µM)
MIC50 (Clavispora lusitaniae): 3.9 µg/mL (≈ 16.3 µM)
MIC80 (Clavispora lusitaniae): 3.9 µg/mL (≈ 16.3 µM)
